The subject of data set [1] is Trypanosoma cruzi. Nature of the data set: Anti-trypanosomal activity against Trypanosoma cruzi epimastigotes assessed as inhibition of parasitic proliferation at 5 uM incubated for 72 hrs by XTT assay relative to control. Format: functional. A general note: Tetrazolium dyes change colour on reduction, which living cells bring about.
In the next data set the test system is Trypanosoma. Nature of the data set: Anti-trypanosomal activity against Trypanosoma. It is filed as functional, organism-based.
The subject of another data set is CHO. Nature of the data set: Cytotoxicity against CHO cells at 5 uM incubated for 72 hrs by MTT assay. It is filed as toxicity, cell-based, Cricetulus griseus. The following applies: chinese hamster.
Data set [2] deals with Trypanosoma cruzi. Put plainly: Trypanocidal activity against Trypanosoma cruzi epimastigotes incubated for 24 hrs by Neubauer chamber method. It is filed as functional, organism-based.

Consider 14 compounds from ChEMBL document CHEMBL6092186, “Semisynthetic Ecdysteroid Cinnamate Esters and tert-Butyl Oxime Ether Derivatives with Trypanocidal Activity” (J Nat Prod, 2024).

A word on the inhibition: it is the share of the control response that was lost under treatment. For orientation: IC50 means the midpoint of a concentration-inhibition curve. Read a low IC50 as greater potency.

Calls of active or inactive are those of the source. The calls are words filed in the database; no cut-off is given here.

Turning to `CC(C)(O)CC[C@@H](OC(=O)/C=C/c1ccccc1)[C@](C)(O)[C@H]1CC=C2C3=C/C(=N\OC(C)(C)C)[C@@H]4C[C@@H](O)[C@@H](OC(=O)/C=C/c5ccccc5)C[C@]4(C)[C@H]3CC[C@@]21C`, the inhibition at 5 µM with Trypanosoma cruzi [1] was at least 30%. In turn, `COc1cc(/C=C/C(=O)O)cc(OC)c1OC` [SINAPIC ACID METHYL ETHER] displayed an IC50 in the data set on Trypanosoma above 600 µM. As to `CC(C)(O)CC[C@@H](OC(=O)/C=C/c1ccccc1)[C@](C)(O)[C@H]1CC=C2C3=C/C(=N\OC(C)(C)C)[C@@H]4C[C@@H](OC(=O)/C=C/c5ccccc5)[C@@H](OC(=O)/C=C/c5ccccc5)C[C@]4(C)[C@H]3CC[C@@]21C`, the inhibition at 5 µM in the data set on Trypanosoma cruzi [1] is at least 30%. As to `CC(C)(O)CC[C@@H](OC(=O)/C=C/c1ccccc1)[C@](C)(O)[C@H]1CC[C@@]2(O)C3=CC(=O)[C@@H]4C[C@@H](O)[C@@H](OC(=O)/C=C/c5ccccc5)C[C@]4(C)[C@H]3CC[C@]12C`, in the data set on CHO, the Activity entry is given as “Non-toxic”. As for `CC(C)(O)CC[C@@H](O)[C@](C)(O)[C@H]1CC=C2C3=C/C(=N\OC(C)(C)C)[C@@H]4C[C@@H](O)[C@@H](OC(=O)/C=C/c5ccccc5)C[C@]4(C)[C@H]3CC[C@@]21C`, the inhibition at 5 µM in the data set with Trypanosoma cruzi [1] is at least 30%.

Consider `CC(C)(O)CC[C@@H](O)[C@](C)(O)[C@H]1CC=C2C3=C/C(=N/OC(C)(C)C)[C@@H]4C[C@@H](O)[C@@H](O)C[C@]4(C)[C@H]3CC[C@@]21C`, for which the inhibition result with Trypanosoma cruzi [1] was “inactive”. For `CC(C)(O)CC[C@@H](OC(=O)/C=C/c1ccccc1)[C@](C)(O)[C@H]1CC[C@@]2(O)C3=CC(=O)[C@@H]4C[C@@H](OC(=O)/C=C/c5ccccc5)[C@@H](O)C[C@]4(C)[C@H]3CC[C@]12C`, in the data set with CHO, the Activity result was “Non-toxic”. `COc1ccc(/C=C/C(=O)O)cc1` [4-METHOXYCINNAMIC ACID] gave an IC50 in the data set on Trypanosoma above 600 µM. Consider `CC(C)(O)CC[C@H]1OC(C)(C)O[C@]1(C)[C@H]1CC[C@@]2(O)C3=C/C(=N\OC(C)(C)C)[C@@H]4C[C@H]5OC(C)(C)O[C@H]5C[C@]4(C)[C@H]3CC[C@]12C`, for which, in the data set on CHO, the Activity result is “Non-toxic”. For the compound `COc1ccc(/C=C/C(=O)O)c(OC)c1`, in the data set with Trypanosoma, the IC50 is above 600 µM. With `CC(C)(O)CC[C@H]1OC(C)(C)O[C@]1(C)[C@H]1CC=C2C3=C/C(=N/OC(C)(C)C)[C@@H]4C[C@H]5OC(C)(C)O[C@H]5C[C@]4(C)[C@H]3CC[C@@]21C`, the Activity entry with CHO was “Non-toxic”. With `CC(C)(O)CC[C@@H](O)[C@](C)(O)[C@H]1CC=C2C3=C/C(=N\OC(C)(C)C)[C@@H]4C[C@@H](O)[C@@H](O)C[C@]4(C)[C@H]3CC[C@@]21C`, the inhibition entry in the data set on Trypanosoma cruzi [1] is “inactive”. Regarding `CC(C)(O)CC[C@@H](O)[C@](C)(O)[C@H]1CC=C2C3=C/C(=N/OC(C)(C)C)[C@@H]4C[C@@H](O)[C@@H](OC(=O)/C=C/c5ccccc5)C[C@]4(C)[C@H]3CC[C@@]21C`, in the data set with Trypanosoma cruzi [1], the inhibition at 5 µM was at least 30%. Compound `CCCCCOC(=O)/C=C/c1ccc(O)cc1` registered an IC50 in the data set with Trypanosoma cruzi [2] of around 5 µM.
